Residues, ends and D or L forms follow the SMILES beside them.
Legend:
PgDPP11 = PgDPP11 (Porphyromonas gingivalis, UniProt B2RID1); test: biochemical
Procedure: Figure 2 Correlation diagrams between the hydrophobicity index (H.I.) of P2-amino acid and residual DPP activities of S46 peptidases. (a) SmDPP7. The outlier dipeptides Asn-Tyr and Trp-Tyr are coloured in red and blue, respectively (see text). (b) PgDPP7. Tyr-Tyr-MCA hydrolysis of PgDPP7 was inhibited by Xaa-Tyr dipeptide. Residual activity was measured under conditions where 200 µM dipeptides and 200 µM Tyr-Tyr-MCA were added into the reaction solution. (c) DPP11 from S. maltophilia (SmDPP11). (d) PgDPP11. For DPP11s, Leu-Asp-MCA hydrolysis was inhibited by Xaa-Asp dipeptide. Residual activity was measured under conditions where 100 µM dipeptides and 100 µM Leu-Asp-MCA were added into the reaction solution. The hydrophobicity indices of the amino acids were adopted from Sereda et al., 1994 and Mohera et al. 1995[25],[26]. R is the correlation coefficient. The standard deviations were obtained from three independent experiments.
(§1) The dipeptide library was purchased from AnaSpec (Fremont, CA, US). Ile-Tyr and Arg-Tyr were synthesized by Eurofins Genomics (Tokyo, Japan). Cys-Tyr and Cys-Asp could not be purchased commercially. Different concentrations (3.13, 6.25, 12.5, 25, 50, 100, and 200 µM) of dipeptides as the inhibitor and 200 µM Tyr-Tyr-MCA (GenScript, NJ, US) as the substrate for DPP7 were added into a reaction buffer consisting of 50 mM sodium phosphate buffer pH 7.0, 5 mM EDTA and 0.005% Tween 20. For DPP11s, different concentrations (1.56, 3.13, 6.25, 12.5, 25, 50, and 100 µM) of dipeptides as the inhibitor and 100 µM Leu-Asp-MCA (Peptide Institute, Osaka, Japan) as the substrate were used. The enzyme reaction was performed at 298 K for 20 min and standard deviations were calculated from three independent experiments. Half-maximal inhibitory concentration (IC50) values were determined by fitting to a sigmoid curve (4-parameter logistic curve) using ImageJ software[35] and inhibition constants (Ki) were calculated using the Cheng-Prusoff Equation[36]. The fluorescence intensity of the released MCA was measured with the same method of determination of kinetics parameters toward dipeptidyl MCA.

[1] = of the amino acid; ref 25,26 (Sereda et al. and Mohera et al.); cited from earlier work
SmDPP7 = test: Inhibition assay using dipeptide library, Tyr-Tyr-MCA hydrolysis; type: biochemical, Stenotrophomonas maltophilia; settings: Xaa-Tyr as competitive inhibitor; substrate 200 µM Tyr-Tyr-MCA; pH 7.0, 298 K; Ki from IC50 by Cheng-Prusoff
Procedure: Figure 1 Effect of Xaa-Tyr dipeptides on the hydrolytic activity of SmDPP7 towards synthetic substrate Tyr-Tyr-MCA. Inhibition assay was performed as described in “Materials and methods”. Residual activity was measured under conditions where 200 µM Xaa-Tyr dipeptide and 200 µM Tyr-Tyr-MCA, synthetic substrate were added into the reaction solution. […] The standard deviations were obtained from three independent experiments.
as §1

wild-type SmDPP7 = test: Kinetic parameters toward dipeptidyl MCA; type: biochemical, Stenotrophomonas maltophilia; settings: pH 7.0, 298 K
Procedure: (§2) Kinetic parameters were determined by fitting the experimental data to the Michaelis–Menten equation using Excel Solver (Microsoft, WA, US) by nonlinear least-squares fitting with different concentrations of glycyl-L-tyrosyl-4-methylcoumaryl-7-amide (3.91, 7.81, 15.6, 31.3, 62.5, 125, 250, and 500 µM; Gly-Tyr-MCA; GenScript, NJ, US), L-tyrosyl-L-tyrosyl-4-methylcoumaryl-7-amide (1.56, 3.13, 6.25, 12.5, 25, 50, 100, and 200 µM; Tyr-Tyr-MCA; GenScript, NJ, US), L-asparaginyl-L-tyrosyl-4-methylcoumaryl-7-amide (1.56, 3.13, 6.25, 12.5, 25, 50, 100, and 200 µM; Asn-Tyr-MCA; GenScript, NJ, US), and L-leucinyl-L-asparaginic acid-4-methylcoumaryl-7-amide (0.781, 1.56, 3.13, 6.25, 12.5, 25, 50, and 100 µM; Leu-Asp-MCA; Peptide Institute, Osaka, Japan) as a substrate. The enzyme reaction was performed in a reaction buffer consisting of 50 mM sodium phosphate buffer pH 7.0, 5 mM EDTA, and 0.005% Tween 20 at 298 K for 20 min and standard deviations were calculated from three independent experiments. […] For SmDPP7 (wild-type and mutants), concentrations of the purified enzymes were 10, 2, and 2 nM for the hydrolyses of Gly-Tyr-MCA, Tyr-Tyr-MCA, and Asn-Tyr-MCA, respectively. Concentration of purified PgDPP7 used for determining kinetic parameters of Tyr-Tyr-MCA hydrolysis was 25 nM. For SmDPP11 and PgDPP11, concentrations of the purified enzymes used for determining kinetic parameters of Leu-Asp-MCA hydrolysis were 0.5 nM and 1 nM, respectively. The fluorescence intensity of the released MCA was measured with excitation at 355 nm and emission at 460 nm using an Infinite 200 PRO microplate reader (Tecan, Switzerland).

SmDPP7 R218A mutant = test: Kinetic parameters toward dipeptidyl MCA; type: biochemical, Stenotrophomonas maltophilia; design: key: “–” means not determined due to low activity
Procedure: (§3) To test the roles of the residues located in the S2 subsite for P2 residue recognition by SmDPP7, we replaced the following residues with alanine and analysed the enzymatic activities of the mutant enzymes on synthetic substrates, Gly-Tyr-MCA, Tyr-Tyr-MCA, and Asn-Tyr-MCA (Table 2). The mutated residues and their estimated roles were: Lys206, Arg218, Thr220, and Phe671 for interaction with the P2 side chain.
as §2

SmDPP7 R218Q mutant = test: Kinetic parameters toward dipeptidyl MCA; type: biochemical, Stenotrophomonas maltophilia
SmDPP7 F671A mutant = test: Kinetic parameters toward dipeptidyl MCA; type: biochemical, Stenotrophomonas maltophilia
Procedure: as §3, §2

SmDPP7 K206A mutant = test: Kinetic parameters toward dipeptidyl MCA; type: biochemical, Stenotrophomonas maltophilia
Procedure: as §3, §2

SmDPP7 R218K mutant = test: Kinetic parameters toward dipeptidyl MCA; type: biochemical, Stenotrophomonas maltophilia
Procedure: as §3, §2

SmDPP7 T220A mutant = test: Kinetic parameters toward dipeptidyl MCA; type: biochemical, Stenotrophomonas maltophilia
Procedure: as §3, §2

PgDPP11, sequence (B2RID1 22-720): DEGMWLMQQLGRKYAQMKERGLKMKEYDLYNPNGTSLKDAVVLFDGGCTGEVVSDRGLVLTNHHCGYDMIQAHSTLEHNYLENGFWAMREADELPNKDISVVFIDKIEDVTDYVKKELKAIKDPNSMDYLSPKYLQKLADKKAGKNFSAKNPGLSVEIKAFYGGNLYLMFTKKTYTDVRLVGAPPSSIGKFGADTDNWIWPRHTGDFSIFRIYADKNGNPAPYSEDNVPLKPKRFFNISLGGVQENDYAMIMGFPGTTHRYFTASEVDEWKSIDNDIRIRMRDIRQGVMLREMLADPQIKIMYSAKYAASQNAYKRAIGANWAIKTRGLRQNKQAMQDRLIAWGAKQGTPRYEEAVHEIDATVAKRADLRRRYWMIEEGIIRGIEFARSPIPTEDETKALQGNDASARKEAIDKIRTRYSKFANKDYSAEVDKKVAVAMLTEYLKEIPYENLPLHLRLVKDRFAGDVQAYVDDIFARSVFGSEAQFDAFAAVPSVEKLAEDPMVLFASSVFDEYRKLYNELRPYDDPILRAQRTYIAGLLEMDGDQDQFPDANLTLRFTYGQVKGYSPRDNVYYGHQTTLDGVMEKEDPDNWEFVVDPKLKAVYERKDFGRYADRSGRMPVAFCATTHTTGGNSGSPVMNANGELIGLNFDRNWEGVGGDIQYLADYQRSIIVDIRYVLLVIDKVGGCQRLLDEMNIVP

Molecule: C[C@H](N)C(=O)N[C@@H](CC(=O)O)C(=O)O [Ala-Asp] (H-Ala-Asp-OH)
- Ki (PgDPP11): > 5.11 µM

Molecule: C[C@H](N)C(=O)O [Ala]
- H.I. of P2 aa (hydrophobicity index) [1]: 41

Molecule: N=C(N)NCCC[C@H](N)C(=O)N[C@@H](CC(=O)O)C(=O)O [Arg-Asp] (H-Arg-Asp-OH)
- Ki (PgDPP11): > 5.11 µM

Molecule: NC(=O)C[C@H](N)C(=O)N[C@@H](CC(=O)O)C(=O)O [Asn-Asp] (H-Asn-Asp-OH)
- Ki (PgDPP11): 4.06 ± 0.16 µM

Molecule: N[C@@H](CC(=O)O)C(=O)N[C@@H](CC(=O)O)C(=O)O [Asp-Asp] (H-Asp-Asp-OH)
- Ki (PgDPP11): > 5.11 µM

Molecule: NC(=O)CC[C@H](N)C(=O)N[C@@H](CC(=O)O)C(=O)O [Gln-Asp] (H-Gln-Asp-OH)
- Ki (PgDPP11): > 5.11 µM

Molecule: N[C@@H](CCC(=O)O)C(=O)N[C@@H](CC(=O)O)C(=O)O [Glu-Asp] (H-Glu-Asp-OH)
- Ki (PgDPP11): > 5.11 µM

Molecule: NCC(=O)N[C@@H](CC(=O)O)C(=O)O [Gly-Asp] (H-Gly-Asp-OH)
- Ki (PgDPP11): > 5.11 µM

Molecule: N[C@@H](Cc1c[nH]cn1)C(=O)N[C@@H](CC(=O)O)C(=O)O [His-Asp] (H-His-Asp-OH)
- Ki (PgDPP11): > 5.11 µM

Molecule: N[C@@H](Cc1c[nH]cn1)C(=O)O [His]
- H.I. of P2 aa (hydrophobicity index) [1]: 8

Molecule: CC[C@H](C)[C@H](N)C(=O)N[C@@H](CC(=O)O)C(=O)O [Ile-Asp] (H-Ile-Asp-OH)
- Ki (PgDPP11): > 5.11 µM

Molecule: CC[C@H](C)[C@H](N)C(=O)O [Ile]
- H.I. of P2 aa (hydrophobicity index) [1]: 99

Molecule: CC(C)C[C@H](N)C(=O)N[C@@H](CC(=O)O)C(=O)O [Leu-Asp] (H-Leu-Asp-OH)
- Ki (PgDPP11): 3.35 ± 0.23 µM

Molecule: NCCCC[C@H](N)C(=O)N[C@@H](CC(=O)O)C(=O)O [Lys-Asp] (H-Lys-Asp-OH)
- Ki (PgDPP11): > 5.11 µM

Molecule: CSCC[C@H](N)C(=O)N[C@@H](CC(=O)O)C(=O)O [Met-Asp] (H-Met-Asp-OH)
- Ki (PgDPP11): > 5.11 µM

Molecule: CSCC[C@H](N)C(=O)O [Met]
- H.I. of P2 aa (hydrophobicity index) [1]: 74

Molecule: N[C@@H](Cc1ccccc1)C(=O)N[C@@H](CC(=O)O)C(=O)O [Phe-Asp] (H-Phe-Asp-OH)
- Ki (PgDPP11): 5.11 ± 0.06 µM

Molecule: N[C@@H](Cc1ccccc1)C(=O)O [Phe]
- H.I. of P2 aa (hydrophobicity index) [1]: 100

Molecule: O=C(O)C[C@H](NC(=O)[C@@H]1CCCN1)C(=O)O [Pro-Asp] (H-Pro-Asp-OH)
- Ki (PgDPP11): > 5.11 µM

Molecule: N[C@@H](CO)C(=O)N[C@@H](CC(=O)O)C(=O)O [Ser-Asp] (H-Ser-Asp-OH)
- Ki (PgDPP11): > 5.11 µM

Molecule: C[C@@H](O)[C@H](N)C(=O)N[C@@H](CC(=O)O)C(=O)O [Thr-Asp] (H-Thr-Asp-OH)
- Ki (PgDPP11): > 5.11 µM

Molecule: N[C@@H](Cc1c[nH]c2ccccc12)C(=O)N[C@@H](CC(=O)O)C(=O)O [Trp-Asp] (H-Trp-Asp-OH)
- Ki (PgDPP11): 1.36 ± 0.06 µM

Molecule: N[C@@H](Cc1c[nH]c2ccccc12)C(=O)O [Trp]
- H.I. of P2 aa (hydrophobicity index) [1]: 97

Molecule: N[C@@H](Cc1ccc(O)cc1)C(=O)N[C@@H](CC(=O)O)C(=O)O [Tyr-Asp] (H-Tyr-Asp-OH)
- Ki (PgDPP11): > 5.11 µM

Molecule: N[C@@H](Cc1ccc(O)cc1)C(=O)O [Tyr]
- H.I. of P2 aa (hydrophobicity index) [1]: 63

Molecule: CC(C)[C@H](N)C(=O)N[C@@H](CC(=O)O)C(=O)O [Val-Asp]
- Ki (PgDPP11): > 5.11 µM

Molecule: CC(C)[C@H](N)C(=O)O [Val]
- H.I. of P2 aa (hydrophobicity index) [1]: 76

Molecule: Ala-Tyr
- Ki (SmDPP7): > 58 µM

Molecule: Asp-Tyr
- Ki (SmDPP7): > 58 µM

Molecule: Glu-Tyr
- Ki (SmDPP7): > 58 µM

Molecule: Gly-Tyr
- Ki (SmDPP7): > 58 µM

Molecule: His-Tyr
- Ki (SmDPP7): > 58 µM

Molecule: L-asparaginyl-L-tyrosyl-4-methylcoumaryl-7-amide [Asn-Tyr-MCA]
- Km (wild-type SmDPP7): 51.3 ± 1.6 µM
- kcat (wild-type SmDPP7): 3.67 ± 0.12 s⁻¹
- Km (SmDPP7 R218A mutant): –
- kcat (SmDPP7 R218A mutant): –
- kcat/Km (SmDPP7 R218A mutant): –
- Km (SmDPP7 R218Q mutant): 390 ± 14 µM
- kcat (SmDPP7 R218Q mutant): 0.198 ± 0.006 s⁻¹
- Km (SmDPP7 F671A mutant): 17.4 ± 1.4 µM
- kcat (SmDPP7 F671A mutant): 0.230 ± 0.012 s⁻¹
- Km (SmDPP7 K206A mutant): 54.1 ± 2.1 µM
- kcat (SmDPP7 K206A mutant): 3.47 ± 0.02 s⁻¹
- Km (SmDPP7 R218K mutant): 277 ± 6 µM
- kcat (SmDPP7 R218K mutant): 0.183 ± 0.008 s⁻¹
- Km (SmDPP7 T220A mutant): 66.6 ± 1.5 µM
- kcat (SmDPP7 T220A mutant): 2.60 ± 0.04 s⁻¹

Molecule: L-tyrosyl-L-tyrosyl-4-methylcoumaryl-7-amide [Tyr-Tyr-MCA]
- Km (wild-type SmDPP7): 81.7 ± 3.4 µM
- kcat (wild-type SmDPP7): 3.83 ± 0.09 s⁻¹
- Km (SmDPP7 R218A mutant): –
- kcat (SmDPP7 R218A mutant): –
- kcat/Km (SmDPP7 R218A mutant): –
- Km (SmDPP7 R218Q mutant): 275 ± 11 µM
- kcat (SmDPP7 R218Q mutant): 0.0403 ± 0.0004 s⁻¹
- Km (SmDPP7 F671A mutant): 463 ± 88 µM
- kcat (SmDPP7 F671A mutant): 1.54 ± 0.18 s⁻¹
- Km (SmDPP7 K206A mutant): 55.8 ± 1.5 µM
- kcat (SmDPP7 K206A mutant): 3.52 ± 0.04 s⁻¹
- Km (SmDPP7 R218K mutant): 251 ± 6 µM
- kcat (SmDPP7 R218K mutant): 0.240 ± 0.003 s⁻¹
- Km (SmDPP7 T220A mutant): 46.4 ± 2.4 µM
- kcat (SmDPP7 T220A mutant): 1.82 ± 0.07 s⁻¹

Molecule: Pro-Tyr
- Ki (SmDPP7): > 58 µM

Molecule: Ser-Tyr
- Ki (SmDPP7): > 58 µM

Molecule: glycyl-L-tyrosyl-4-methylcoumaryl-7-amide [Gly-Tyr-MCA]
- Km (wild-type SmDPP7): 183 ± 4 µM
- kcat (wild-type SmDPP7): 0.702 ± 0.022 s⁻¹
- Km (SmDPP7 R218A mutant): –
- kcat (SmDPP7 R218A mutant): –
- kcat/Km (SmDPP7 R218A mutant): –
- Km (SmDPP7 R218Q mutant): 717 ± 63 µM
- kcat (SmDPP7 R218Q mutant): 0.0365 ± 0.0018 s⁻¹
- Km (SmDPP7 F671A mutant): 688 ± 38 µM
- kcat (SmDPP7 F671A mutant): 0.191 ± 0.009 s⁻¹
- Km (SmDPP7 K206A mutant): 201 ± 10 µM
- kcat (SmDPP7 K206A mutant): 0.751 ± 0.015 s⁻¹
- Km (SmDPP7 R218K mutant): 586 ± 40 µM
- kcat (SmDPP7 R218K mutant): 0.0238 ± 0.0011 s⁻¹
- Km (SmDPP7 T220A mutant): 215 ± 10 µM
- kcat (SmDPP7 T220A mutant): 0.454 ± 0.010 s⁻¹

From publication PMC8041751, “Structural basis for an exceptionally strong preference for asparagine residue at the S2 subsite of Stenotrophomonas maltophilia dipeptidyl peptidase 7” (Scientific Reports, 2021)
